Experimental data: ChEMBL document CHEMBL1201862, “PubChem BioAssay data set” (2004)
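Results reflect a 48-hour exposure of cells in 96-well plates to compound at five concentrations. GI50 = concentration required for 50% inhibition of growth.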 The source made the active and inactive calls. No stated cut-off is given here; in the data, active = GI50 up to about 1.1 µM and inactive = higher.

Experiments:
Assay in all cases: inhibition of tumour cell growth, NCI panel, 48 h
A549 = system: A549
EKVX = system: EKVX
786-0 = system: 786-0
OVCAR-4 = system: OVCAR-4
UACC-257 = system: UACC-257
IGROV-1 = system: IGROV-1
HCT-15 = system: HCT-15
SK-OV-3 = system: SK-OV-3
SW-620 = system: SW-620
SK-MEL-28 = system: SK-MEL-28
TK-10 = system: TK-10
SF-268 = system: SF-268
ACHN = system: ACHN
UACC-62 = system: UACC-62
MOLT-4 = system: MOLT-4
RPMI-8226 = system: RPMI-8226
SF-295 = system: SF-295
Hs-578T = system: Hs-578T
LOX IMVI = system: LOX IMVI
PC-3 = system: PC-3
DU-145 = system: DU-145
RXF 393 = system: RXF 393
OVCAR-3 = system: OVCAR-3
NCI-H23 = system: NCI-H23
COLO 205 = system: COLO 205
CCRF-CEM = system: CCRF-CEM
KM12 = system: KM12
SK-MEL-2 = system: SK-MEL-2
U-251 = system: U-251
SNB-19 = system: SNB-19
SN12C = system: SN12C
HCT-116 = system: HCT-116
Malme-3M = system: Malme-3M
NCI/ADR-RES = system: NCI/ADR-RES
M14 = system: M14
HOP-62 = system: HOP-62
HT-29 = system: HT-29
MDA-MB-231 = system: MDA-MB-231
MDA-N = system: MDA-N
SNB-75 = system: SNB-75
NCI-H460 = system: NCI-H460
HL-60 = system: HL-60
OVCAR-5 = system: OVCAR-5
K562 = system: K562
HCC 2998 = system: HCC 2998
NCI-H522 = system: NCI-H522
T47D = system: T47D
CAKI-1 = system: CAKI-1
SF-539 = system: SF-539
A498 = system: A498
NCI-H226 = system: NCI-H226
MCF7 = system: MCF7
OVCAR-8 = system: OVCAR-8
SK-MEL-5 = system: SK-MEL-5
MDA-MB-435 = system: MDA-MB-435
UO-31 = system: UO-31
BT-549 = system: BT-549
HOP-92 = system: HOP-92

For `CCOC(=O)c1cc2cc(N(C(C)=O)C(C)=O)ccc2s1`, the GI50 (A549) was 36.1 µM (inactive), the GI50 (EKVX) was 20.6 µM (inactive) and the GI50 (786-0) was 27.2 µM (inactive). For the same compound, the GI50 (OVCAR-4) was 31.3 µM (inactive), the GI50 (UACC-257) was 40 µM (inactive) and the GI50 (IGROV-1) was 38 µM (inactive). For the same compound, the GI50 (HCT-15) was 36.1 µM, the GI50 (SK-OV-3) was 30.4 µM (inactive) and the GI50 (SW-620) was 36.2 µM (inactive). The GI50 (SK-MEL-28) was 30.8 µM (inactive), the GI50 (TK-10) was 56.6 µM (inactive) and the GI50 (SF-268) was 23.2 µM (inactive). The GI50 (ACHN) was 25.2 µM (inactive), the GI50 (UACC-62) was 31.6 µM (inactive) and the GI50 (MOLT-4) was 18.6 µM (inactive). The GI50 (RPMI-8226) was 19.6 µM (inactive), the GI50 (SF-295) was 30.8 µM (inactive) and the GI50 (Hs-578T) was 16.9 µM (inactive). The GI50 (LOX IMVI) was 33.5 µM (inactive), the GI50 (PC-3) was 20.5 µM (inactive) and the GI50 (DU-145) was 23.7 µM (inactive). For the same compound, the GI50 (RXF 393) was 13.5 µM (inactive), the GI50 (OVCAR-3) was 30.8 µM (inactive) and the GI50 (NCI-H23) was 45.3 µM (inactive). The GI50 (COLO 205) was 33.7 µM (inactive), the GI50 (CCRF-CEM) was 21.9 µM (inactive) and the GI50 (KM12) was 40.5 µM (inactive). For the same compound, the GI50 (SK-MEL-2) was 22.5 µM (inactive), the GI50 (U-251) was 20.7 µM (inactive) and the GI50 (SNB-19) was 36.9 µM (inactive). For the same compound, the GI50 (SN12C) was 19.7 µM (inactive), the GI50 (HCT-116) was 29.5 µM (inactive) and the GI50 (Malme-3M) was 16.6 µM (inactive). For the same compound, the GI50 (NCI/ADR-RES) was 33.7 µM (inactive), the GI50 (M14) was 25.1 µM (inactive) and the GI50 (HOP-62) was 48.1 µM (inactive). The GI50 (HT-29) was 20 µM (inactive), the GI50 (MDA-MB-231) was 23 µM (inactive) and the GI50 (MDA-N) was 29.2 µM (inactive). The GI50 (SNB-75) was 10.1 µM (inactive), the GI50 (NCI-H460) was 38.5 µM (inactive) and the GI50 (HL-60) was 13 µM (inactive). For the same compound, the GI50 (OVCAR-5) was 25.1 µM (inactive), the GI50 (K562) was 24.7 µM (inactive) and the GI50 (HCC 2998) was 35.4 µM (inactive). For the same compound, the GI50 (NCI-H522) was 16.8 µM (inactive), the GI50 (T47D) was 18.3 µM (inactive) and the GI50 (CAKI-1) was 39.4 µM (inactive). For the same compound, the GI50 (SF-539) was 27 µM (inactive), the GI50 (A498) was 13.8 µM (inactive) and the GI50 (NCI-H226) was 20.4 µM (inactive). For the same compound, the GI50 (MCF7) was 28.3 µM (inactive), the GI50 (OVCAR-8) was 26.8 µM (inactive) and the GI50 (SK-MEL-5) was 20.7 µM (inactive). The GI50 (MDA-MB-435) was 37 µM (inactive), the GI50 (UO-31) was 27.7 µM (inactive) and the GI50 (BT-549) was 29.9 µM (inactive). For the same compound, the GI50 (HOP-92) was 27.1 µM (inactive).

For `CN(CCCN(C)CCc1ccc(Cl)c(Cl)c1)CCCN1CCCC1`, the GI50 (A549) was 2.97 µM (inactive), the GI50 (EKVX) was 3.35 µM (inactive) and the GI50 (786-0) was 1.26 µM (inactive). The GI50 (OVCAR-4) was 7.28 µM (inactive), the GI50 (UACC-257) was 1.83 µM (inactive) and the GI50 (IGROV-1) was 3.11 µM (inactive). For the same compound, the GI50 (HCT-15) was 2.31 µM, the GI50 (SK-OV-3) was 10.2 µM (inactive) and the GI50 (SW-620) was 2.26 µM (inactive). The GI50 (SK-MEL-28) was 1.5 µM (inactive), the GI50 (TK-10) was 2.05 µM (inactive) and the GI50 (SF-268) was 2.12 µM (inactive). The GI50 (ACHN) was 7.11 µM (inactive), the GI50 (UACC-62) was 1.93 µM (inactive) and the GI50 (MOLT-4) was 0.908 µM (active). For the same compound, the GI50 (RPMI-8226) was 0.228 µM (active), the GI50 (SF-295) was 2.28 µM (inactive) and the GI50 (Hs-578T) was 1.48 µM (inactive). The GI50 (LOX IMVI) was 1.52 µM (inactive), the GI50 (PC-3) was 3.35 µM (inactive) and the GI50 (DU-145) was 8.71 µM (inactive). For the same compound, the GI50 (RXF 393) was 1.61 µM (inactive), the GI50 (OVCAR-3) was 3.72 µM (inactive) and the GI50 (NCI-H23) was 3.31 µM (inactive). For the same compound, the GI50 (COLO 205) was 2.28 µM (inactive), the GI50 (CCRF-CEM) was 0.458 µM (active) and the GI50 (KM12) was 2.61 µM (inactive). For the same compound, the GI50 (SK-MEL-2) was 1.83 µM (inactive), the GI50 (U-251) was 1.92 µM (inactive) and the GI50 (SNB-19) was 3.61 µM (inactive). For the same compound, the GI50 (SN12C) was 3.12 µM (inactive), the GI50 (HCT-116) was 1.73 µM (inactive) and the GI50 (Malme-3M) was 2.16 µM (inactive). The GI50 (NCI/ADR-RES) was 6.08 µM (inactive), the GI50 (M14) was 1.52 µM (inactive) and the GI50 (HOP-62) was 2.86 µM (inactive). For the same compound, the GI50 (HT-29) was 0.55 µM (active), the GI50 (MDA-MB-231) was 1.33 µM (inactive) and the GI50 (MDA-N) was 1.31 µM (inactive). The GI50 (SNB-75) was 2.72 µM (inactive), the GI50 (NCI-H460) was 2.27 µM (inactive) and the GI50 (HL-60) was 1.62 µM (inactive). The GI50 (OVCAR-5) was 3.3 µM (inactive), the GI50 (K562) was 0.532 µM (active) and the GI50 (HCC 2998) was 0.305 µM (active). The GI50 (NCI-H522) was 1.56 µM (inactive), the GI50 (T47D) was 2.34 µM (inactive) and the GI50 (CAKI-1) was 2.37 µM (inactive). The GI50 (SF-539) was 2.88 µM (inactive), the GI50 (A498) was 1.76 µM (inactive) and the GI50 (NCI-H226) was 2.56 µM (inactive). For the same compound, the GI50 (MCF7) was 1.78 µM (inactive), the GI50 (OVCAR-8) was 2.82 µM (inactive) and the GI50 (SK-MEL-5) was 2.32 µM (inactive). For the same compound, the GI50 (MDA-MB-435) was 0.531 µM (active), the GI50 (UO-31) was 1.23 µM (inactive) and the GI50 (BT-549) was 6.03 µM (inactive). For the same compound, the GI50 (HOP-92) was 2.13 µM (inactive).
